From BindingDB's records for doi:10.1002/cbic.200400099 (Technische UniversitÄT Braunschweig, 2005)

Key:
Assay in all cases: Kinase Assay
Conditions in all cases: pH 7.5; 30 °C
[1] = target: Glycogen synthase kinase-3 beta (Homo sapiens, UniProt P49841)
Text: (§1) Kinase activity assay using GSK-3beta, CDK1/cyclin B and CDK5/p25.

[2] = target: Cyclin-dependent kinase 1 (Homo sapiens, UniProt P06493)
Text: as §1

[3] = target: Cyclin-dependent kinase 5 (Homo sapiens, UniProt Q00535)
Cyclin-dependent kinase 5, sequence (Q00535 whole entry): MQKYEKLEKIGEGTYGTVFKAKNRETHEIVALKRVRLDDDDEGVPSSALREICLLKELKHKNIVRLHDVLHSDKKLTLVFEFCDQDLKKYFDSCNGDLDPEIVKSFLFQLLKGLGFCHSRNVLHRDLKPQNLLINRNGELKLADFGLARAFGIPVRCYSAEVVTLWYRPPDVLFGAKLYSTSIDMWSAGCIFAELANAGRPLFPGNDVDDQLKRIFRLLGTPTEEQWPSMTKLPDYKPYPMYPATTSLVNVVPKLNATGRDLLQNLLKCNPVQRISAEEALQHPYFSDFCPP
Text: as §1

Glycogen synthase kinase-3 beta, sequence (P49841 whole entry): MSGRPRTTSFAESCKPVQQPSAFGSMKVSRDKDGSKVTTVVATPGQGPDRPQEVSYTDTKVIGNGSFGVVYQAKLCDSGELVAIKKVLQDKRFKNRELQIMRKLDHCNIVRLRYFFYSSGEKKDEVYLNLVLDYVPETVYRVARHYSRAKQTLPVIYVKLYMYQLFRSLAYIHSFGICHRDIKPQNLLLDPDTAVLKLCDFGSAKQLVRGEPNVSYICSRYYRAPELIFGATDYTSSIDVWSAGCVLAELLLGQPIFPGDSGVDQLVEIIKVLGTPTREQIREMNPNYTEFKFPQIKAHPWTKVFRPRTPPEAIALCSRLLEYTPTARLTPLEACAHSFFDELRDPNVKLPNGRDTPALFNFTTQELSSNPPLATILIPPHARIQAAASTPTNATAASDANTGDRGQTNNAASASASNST
Cyclin-dependent kinase 1, sequence (P06493 whole entry): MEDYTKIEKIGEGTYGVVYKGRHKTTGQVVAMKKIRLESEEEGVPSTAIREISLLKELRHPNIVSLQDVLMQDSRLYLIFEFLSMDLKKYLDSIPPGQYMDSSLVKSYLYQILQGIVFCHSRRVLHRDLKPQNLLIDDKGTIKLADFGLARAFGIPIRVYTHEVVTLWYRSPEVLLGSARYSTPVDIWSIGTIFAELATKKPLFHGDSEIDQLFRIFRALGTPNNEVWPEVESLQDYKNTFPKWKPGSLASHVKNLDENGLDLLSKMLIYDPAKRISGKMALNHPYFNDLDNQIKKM

SMILES | IC50 [1] [nM] | IC50 [2] [nM] | IC50 [3] [nM]
N#CCCc1ccc2c(c1)-c1[nH]c3ccc([N+](=O)[O-])cc3c1CC(=O)N2 | 0.8 | 0.23 | 30
NCCCCc1ccc2c(c1)-c1[nH]c3ccc([N+](=O)[O-])cc3c1CC(=O)N2 [Alsterpaullone derivative, 3] | 6 | 80 | 70
NCCCc1ccc2c(c1)-c1[nH]c3ccc([N+](=O)[O-])cc3c1CC(=O)N2 [Alsterpaullone derivative, 4] | 2.5 | 27 | 23

More lines, now with the values ahead:

IC50 [1] [nM] | IC50 [2] [nM] | IC50 [3] [nM] | SMILES
34 | 100 | 250 | COC(=O)CCc1ccc2c(c1)-c1[nH]c3ccc([N+](=O)[O-])cc3c1CC(=O)N2 [Alsterpaullone derivative, 6]
6.5 | 25 | 80 | O=C(O)CCc1ccc2c(c1)-c1[nH]c3ccc([N+](=O)[O-])cc3c1CC(=O)N2 [Alsterpaullone derivative, 5]
